Experimental data from patent US20190352691A1, “PATHOGEN DETECTION” (priority 2013, published 2019).

Assays:
A. baumannii ATCC 17691 = settings: cited from earlier work
Mtb = test: anti-tuberculosis activity (whole cell); format: cell-based, Mycobacterium tuberculosis

| SMILES | activity against Acinetobacter baumannii (A. baumannii ATCC 17691) | activity against tuberculosis (Mtb) |
| --- | --- | --- |
| N[C@@H](C(=O)N[C@@H]1C(=O)N2C(C(=O)O)=C(Cl)CC[C@H]12)c1ccccc1 [Lorabid] | not active | – |
| C[C@@H]1CC[C@H]2[C@@H](C)C(=O)O[C@@H]3O[C@@]4(C)CC[C@@H]1[C@]32OO4 [artemisinin] | – | not active |
